Results taken from patent publication US4710505A, “Asymmetric heterocyclic ester derivatives of 1,4-dihydropyridine-3,5-dicarboxylic acids” (Societe de Recherches Industrielles (S.O.R.I.), priority 1985, dated 1987).
Read-outs that look alike come from different tables or passages of the source.

What was measured:
[1] = test system: rabbit aorta; assay: Relaxing effect on isolated rabbit aorta contracted (depolarized) by KCl; settings: Oryctolagus cuniculus, read-out: ED50 (dose causing a 50% relaxation of the precontracted arteries)
Experimental: I. RELAXING EFFECT ON ISOLATED RABBIT AORTA CONTRACTED BY KCl
The thoracic aortae of male rabbits are removed, cut into narrow strips and placed under tension in an oxygenated survival medium. The contractions of these arteries, the amplitude of which is measured using a myograph, are induced by a 127 mM solution of KCl [R. Towart et al., Arzneim.-Forsch./Drug Res. 32, 338-346 (1982)]. The compounds studied are dissolved in a mixture of anhydrous ethanol and double distilled water (1:1) v/v, the percentage of ethanol in the baths being less than or equal to 0.3% at the end of the experiment. When the contraction plateau is reached, the compound is added to the medium in increasing doses every 15 minutes.

[2] = test system: spontaneously hypertensive rats; assay: Antihypertensive activity in spontaneously hypertensive rats, oral administration; format: in vivo; settings: for change in vivo at 30 mg/kg / change in vivo at 10 mg/kg: Rattus norvegicus
Experimental: Spontaneously hypertensive rats aged between 16 and 20 weeks are used. The systolic pressure is measured by plethysmography and the heart rate is obtained from the pressure graph. The compounds studied are administered orally.

[3] = in vivo; settings: rat, intravenous, male Wistar rats weighing 300 g
Experimental: The LD50 was determined by intravenous administration to male Wistar rats weighing 300 g.

[4] = test system: spontaneously hypertensive rats; assay: Antihypertensive activity in spontaneously hypertensive rats, intravenous administration; format: in vivo; settings: single i.v. dose; Ex. 2 30, Ex. 7 100, Ex. 8 300, Ex. 11 30 and 100 μg/kg; versus nicardipine and nifedipine
From the text: 2. Intravenous administration
Spontaneously hypertensive rats aged between 16 and 20 weeks are used. They are anesthetized with diethyl ether, a cannula is inserted into the caudal artery to measure the arterial pressure and a catheter is inserted into the right jugular vein to administer the compounds as described previously (L. S. Watson and L. T. Ludden, New Antihypertensive Drugs, pages 87-96, Spectrum Publication, Inc., 1976).
Each curve C relates to the control group receiving only the vehicle and each curve T relates to the treated group [n (number of animals per group)=4-7]. The said groups are compared either by analysis of variance, if the variances are homogenous (Bartlett's homocedasticity test), or by Kruskall-Wallis's non-parametric test (the statistically significant results being represented as follows:
FIGS. 1-6 relate to the variation in systolic pressure, expressed in mm Hg (1 mm Hg corresponds approximately to 1.333×10^2 Pa), as a function of time, expressed in minutes, and FIGS. 1a-6a relate to the variation in diastolic pressure, also expressed in mm Hg, as a function of time, expressed in minutes, for the treated groups (curves T) compared with the corresponding control groups (curves C), the doses of products administered being as follows:
FIGS. 2 and 2a: nicardipine at 30 μg/kg i.v.,
FIGS. 3 and 3a: Example 2 at 30 μg/kg i.v.,
FIGS. 4 and 4a: Example 7 at 100 μg/kg i.v.,
FIGS. 5 and 5a: Example 8 at 300 μg/kg i.v., and
FIGS. 6 and 6a: Example 11 at 30 and 100 μg/kg i.v. (curves T1 and T2).

[5] = test system: anesthetized dogs; assay: Hemodynamic effects on anesthetized dogs, intraduodenal administration; format: in vivo, Mongrel dogs; settings: for % variation T.P.R. (total peripheral resistances) / duration of the effect, T.P.R. (total peripheral resistances): calculated
Experimental: III. HEMODYNAMIC EFFECTS ON ANESTHETIZED DOGS Mongrel dogs are anesthetized with pentobarbital sodium (25 mg/kg i.v.). Each animal is placed under artificial respiration and a catheter is introduced into the aorta to measure the arterial pressure. The outputs of the aorta (O. Aor.), right femoral artery (O. Fem.) and left coronary artery (descending part) (O. Cor.) are measured continuously by means of electromagnetic rings. The total peripheral resistances (T.P.R.) are also calculated. […]

[6] = rabbit aorta depolarized by 127 mM KCl
[7] = 30 mg/kg, read-out: % variation Heart rate
[8] = 30 mg/kg, read-out: % variation Systolic pressure
[9] = 0.5 mg/kg, versus nicardipine and nifedipine

EC50 [1, 6]	Compound	change in vivo at 30 mg/kg [2, 7]	change in vivo at 30 mg/kg [2, 8]	LD50 [3]	duration of the effect, Systolic pressure ([2]; 30 mg/kg)	also measured
43 nM	COC(=O)C1=C(C)NC(C)=C(C(=O)OCC2COCO2)C1c1cccc([N+](=O)[O-])c1 (racemic) [Example 3]					
32 nM	COC(=O)C1=C(C)NC(C)=C(C(=O)OCCC2COC(C)(C)O2)C1c1cccc([N+](=O)[O-])c1 (racemic) [Example 4, methyl 2-[(2,2-dimethyl-1,3-dioxolan-4-yl)ethyl]1,4-dihydro-2,6-dimethyl-4-(3-nitrophenyl)pyridine-3,5-dicarboxylate]					
	COC(=O)C1=C(C)NC(C)=C(C(=O)OCC2COC(C)(c3ccccc3)O2)C1c1cccc([N+](=O)[O-])c1 (racemic) [Example 7]	36.4%	-40.5 ± 5.1%	17.8 mg/kg	> 24 h	duration of the antihypertensive effect (in words) [4]: notably longer than that of nicardipine and nifedipine
250 nM	COC(=O)C1=C(C)NC(C)=C(C(=O)OCC2(C)OCCO2)C1c1cccc([N+](=O)[O-])c1 (centres unmarked) [CP 1, methyl 2,2ethylenedioxypropyl 2,6dimethyl-4-(3-nitrophenyl)-1,4-dihydropyridine-3,5-dicarboxylate, reference compound]	0%	-11.6 ± 6%		0 h	
	COC(=O)C1=C(C)NC(C)=C(C(=O)OCC2COC3(CCCC3)O2)C1c1cccc([N+](=O)[O-])c1 (centres unmarked) [Example 5, methyl (1,4-dioxaspiro[4,4]nonan-2-yl)methyl 1,4-dihydro-2,6-dimethyl-4-(3-nitrophenyl)pyridine-3,5-dicarboxylate]	19.3%	-40.4 ± 9.4%			duration of the effect, Heart rate ([2]; 30 mg/kg): 4 h
5000 nM	COC(=O)C1=C(C)NC(C)=C(C(=O)OCC2COC(c3ccccc3)(C(F)(F)F)O2)C1c1cccc([N+](=O)[O-])c1 (centres unmarked) [Example 12]					duration of the effect, Systolic pressure ([2]; 10 mg/kg): > 24 h; change in vivo at 10 mg/kg ([2]; 10 mg/kg, read-out: % variation Heart rate): 31.2%; change in vivo at 10 mg/kg ([2]; 10 mg/kg, read-out: % variation Systolic pressure): -41.4 ± 10%
> 5000 nM	COC(=O)C1=C(C)NC(C)=C(C(=O)OCC2COC(C(F)(F)F)(C(F)(F)F)O2)C1c1cccc([N+](=O)[O-])c1 (centres unmarked) [Example 13]	25%			> 24 h	
> 5000 nM	COC(=O)C1=C(C)NC(C)=C(C(=O)OCC2COC(c3ccccc3)O2)C1c1cccc([N+](=O)[O-])c1 (centres unmarked) [Example 14]	19.9%	-58.4 ± 32.9%		> 24 h	duration of the effect, Heart rate ([2]; 30 mg/kg): > 24 h
	COC(=O)C1=C(C)NC(C)=C(C(=O)OC)C1c1ccccc1[N+](=O)[O-] [nifedipine, dimethyl 1,4-dihydro-2,6-dimethyl-4-(2-nitrophenyl)pyridine-3,5-dicarboxylate, reference compound]	35.4%	-35.2 ± 4.7%			% variation D.P. (diastolic pressure) ([5]; 0.35 mg/kg): -44.2%; % variation O. Aor. (output of the aorta) ([5]; 0.35 mg/kg): +20.5%; % variation O. Cor. (output of left coronary artery) ([5]; 0.35 mg/kg): +66.4%; % variation O. Fem. (output of right femoral artery) ([5]; 0.35 mg/kg): +76.4%; duration of the effect, D.P. (diastolic pressure) ([5]; 0.35 mg/kg): 240 min; duration of the effect, O. Fem. (output of right femoral artery) ([5]; 0.35 mg/kg): 10 min; % variation T.P.R. (total peripheral resistances) ([5]; 0.35 mg/kg): -48.6%; duration of the effect, T.P.R. (total peripheral resistances) ([5]; 0.35 mg/kg): 180 min; EC50 [1]: 22 nM

Compound	EC50 [1, 6]	change in vivo at 30 mg/kg [2, 7]	change in vivo at 30 mg/kg [2, 8]	LD50 [3]	duration of the effect, Systolic pressure ([2]; 30 mg/kg)	also measured
COC(=O)C1=C(C)NC(C)=C(C(=O)OCC2CSC(C)(C)O2)C1c1cccc([N+](=O)[O-])c1 (racemic) [Example 6]	35 nM	21.4%	-35.1 ± 9.2%	34.2 mg/kg		
COC(=O)C1=C(C)NC(C)=C(C(=O)OCC2COC(c3ccccc3)(c3ccccc3)O2)C1c1cccc([N+](=O)[O-])c1 (racemic) [Example 8]	> 5000 nM	12.4%	-37 ± 9%	44.4 mg/kg	> 24 h	duration of the antihypertensive effect (in words) [4]: notably longer than that of nicardipine and nifedipine
COC(=O)C1=C(C)NC(C)=C(C(=O)OCC2COC(C)(c3ccc(Cl)cc3Cl)O2)C1c1cccc([N+](=O)[O-])c1 (racemic) [Example 11]	> 5000 nM	34%	-54 ± 5.9%	38.9 mg/kg	> 24 h	duration of the antihypertensive effect (in words) [4]: notably longer than that of nicardipine and nifedipine
COC(=O)C1=C(C)NC(C)=C(C(=O)OCC2COC(C)(C)O2)C1c1cccc([N+](=O)[O-])c1 (centres unmarked) [Example 1, methyl (2,2-dimethyl-1,3-dioxolan-4-yl)methyl 1,4-dihydro-2,6-dimethyl-4-(3-nitrophenyl)pyridine-3,5-dicarboxylate]	31 nM	16.4%	-28.4 ± 7.3%	22.5 mg/kg		% variation D.P. (diastolic pressure) ([5]; 0.5 mg/kg): -42.6%; % variation O. Aor. (output of the aorta) ([5]; 0.5 mg/kg): +124%; % variation O. Cor. (output of left coronary artery) ([5]; 0.5 mg/kg): +73.6%; % variation O. Fem. (output of right femoral artery) ([5]; 0.5 mg/kg): +114%; duration of the effect, D.P. (diastolic pressure) ([5]; 0.5 mg/kg): 120 min; duration of the effect, O. Aor. (output of the aorta) ([5]; 0.5 mg/kg): 120 min; duration of the effect, O. Fem. (output of right femoral artery) ([5]; 0.5 mg/kg): 270 min; % variation T.P.R. (total peripheral resistances) ([5]; 0.5 mg/kg): -65%; duration of the effect, T.P.R. (total peripheral resistances) ([5]; 0.5 mg/kg): 300 min; cardiac, femoral and coronary outputs (in words) [5, 9]: increased for a longer time and to a greater extent; drop in total peripheral resistances (in words) [5, 9]: greater drop in total peripheral resistances than nicardipine and nifedipine; duration of drop in total peripheral resistances (in words) [5, 9]: considerably longer
COC(=O)C1=C(C)NC(C)=C(C(=O)OCCN(C)Cc2ccccc2)C1c1cccc([N+](=O)[O-])c1 (centres unmarked) [nicardipine, methyl 2-(N-methyl-N-benzylamino)ethyl 1,4-dihydro-2,6-dimethyl-4-(3-nitrophenyl)pyridine-3,5-dicarboxylate, reference compound]	26 nM	21.3%	-46.2 ± 6.8%	11.8 mg/kg		% variation D.P. (diastolic pressure) ([5]; 0.5 mg/kg): -34.5%; % variation O. Aor. (output of the aorta) ([5]; 0.5 mg/kg): +25%; % variation O. Cor. (output of left coronary artery) ([5]; 0.5 mg/kg): +62.2%; % variation O. Fem. (output of right femoral artery) ([5]; 0.5 mg/kg): +70.6%; duration of the effect, D.P. (diastolic pressure) ([5]; 0.5 mg/kg): 150 min; % variation T.P.R. (total peripheral resistances) ([5]; 0.5 mg/kg): -40.5%; duration of the effect, T.P.R. (total peripheral resistances) ([5]; 0.5 mg/kg): 90 min
